Where two headings read alike, the source gives them in different places.
Text: The present invention also utilizes the salts of pyrithione, especially the zinc salt.

Substance: Zinc pyrithione
- solubility (in solution in an admixture of alcohols and water): about 60 ppm
- solubility (in water): about 8 ppm

From patent US20230413825A1, “SHORT AND LONG TERM DIS[…] ALCOHOL AND ZINC PYRITHIONE” (CAO Group, Inc., priority 2020, published 2023)
